# Laboratory results as given in US9952300B2, “Dynamic contrast enhanced MRI method and agents for the assessment of the macromolecular transport within pathologic tissues” (BRACCO IMAGING S.P.A., priority 2012, dated 2018).
# Values joined by “and” are separate entries in the source; they are usually repeats but may differ in a detail not shown here. Equal values may be shown once.
# Assays:
# [1] = target: T1, Human Serum Albumin (Homo sapiens, UniProt P02768); assay: Binding (%) of the paramagnetic complex to human serum proteins/albumin by centrifugal ultrafiltration; type: in vitro ADME; set-up: purchased Nycomed Phama; host or cells: Seronorm Human, reconstituted (lyophilised) human serum
# T1 sequence (P02768 25-609): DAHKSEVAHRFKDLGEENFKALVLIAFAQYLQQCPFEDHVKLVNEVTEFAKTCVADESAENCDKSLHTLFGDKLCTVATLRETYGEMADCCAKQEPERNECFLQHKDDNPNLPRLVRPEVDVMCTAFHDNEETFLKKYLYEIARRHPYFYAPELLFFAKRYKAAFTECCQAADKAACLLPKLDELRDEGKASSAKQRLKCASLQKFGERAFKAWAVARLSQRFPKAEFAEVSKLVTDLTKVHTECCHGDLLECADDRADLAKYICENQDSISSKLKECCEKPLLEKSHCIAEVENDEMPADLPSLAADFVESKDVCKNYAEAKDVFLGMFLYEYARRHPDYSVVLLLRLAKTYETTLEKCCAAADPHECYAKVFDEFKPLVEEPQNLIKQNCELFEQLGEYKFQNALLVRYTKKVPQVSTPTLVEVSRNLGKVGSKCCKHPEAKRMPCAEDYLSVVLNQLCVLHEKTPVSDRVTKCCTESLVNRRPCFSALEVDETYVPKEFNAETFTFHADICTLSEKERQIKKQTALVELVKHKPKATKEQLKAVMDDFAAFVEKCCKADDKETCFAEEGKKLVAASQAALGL
# Text: Preferred albumin binding agents according to the invention include paramagnetic contrast agents having molecular weight lower than 5,000 Da, preferably lower that 3,000 Da and, more preferably, comprised from 800 to 3,000 Da, that further display an in-vivo non-covalent protein binding with the Human Serum Albumin (or HSA, or albumin, as herein used interchangeably) equal to or higher that 85%, preferably higher than 90% and, more preferably, higher than 95%, expressed in terms of % of the agent amount that is non-covalently bound to serum albumin, measured by centrifugal ultrafiltration (Centrifree®) from a 0.5 mM solution of the agent in Seronorm® incubated at 37° C., according to the procedure disclosed, for instance, in Invest.Radiol. 2006, 41: 279-291; Whitlam J B, Brown K F. Ultrafiltration in serum protein binding determinations. J.Pharm.Sci. 1981; 70:146-150, and in the Example 2 of the Experimental section.
# The binding (%) has been determined by with the method of the centrifugal ultrafiltration as described in: Whitlam J B, Brown K F Ultrafiltration in serum protein binding determination. J. Pharm Sci. 1981; 70:146-150; Bowers W F, Fulton S, thompson J. Ultrafiltration vs equilibrium dialysis for determination of free fraction. […]
# The albumin serum protein binding was analysed in a human serum solution (Seronorm Human, Nycomed Phama) where each complex was added at a concentration of Gd(III) ion of 0.5 mM. […] The percent of Gd(III)-complex bound (% B) was determined by equation: % B=[(Ct−Cf)/Ct]*100 where Ct is the total amount of Gd(III) in the incubated solution and Cf is the free Gd(III) complex found in the permeate solution. The average bound fraction was assessed from ultrafiltration experiments carried out in triplicate. […]
# The above solution (0.300 mL) was added to 15 mL of reconstituted human serum. […] The protein free permeate solution (0.4 mL) was collected and Cf was measured by ICP-MS analysis. […]
# From obtained Cf values the percent of bound Gd-complex was determined by application of the following equation % B=[(Ct−Cf)/Ct]*100 where Ct is 0.460 mM (S.D.: 0.015). […]
# [2] = target: T1, Human Serum Albumin; conditions: literature; cited from earlier work
smiles,measurement,setting,value
"C[C@H](CCC(=O)[O-])[C@H]1CC[C@H]2[C@@H]3CC[C@@H]4C[C@@H](NC(=O)CC[C@@H](C(=O)[O-])N(CCN(CC(=O)[O-])CC(=O)[O-])CCN(CC(=O)[O-])CC(=O)[O-])CC[C@]4(C)[C@H]3C[C@H](O)[C@]12C.[Gd+3].[Na+].[Na+].[Na+] [B22956/1, Gadocoletic acid trisodium salt]","Average Gd(III), Cf (free Gd(III) complex in the permeate solution)","[1]; 0.5 mM Gd(III) complex in Seronorm human serum, 10 min at 37° C., 30 KDa MWCO ultrafiltration, per permeate A, B, C, trisodium salt",0.016 mM and 0.011 mM and 0.012 mM
same,"% B, Average","[1]; 0.5 mM complex in human serum, 37° C., average of triplicate",97.19%
same,% B (percent of Gd(III)-complex bound to serum proteins),"[1]; 0.5 mM complex in human serum, 37° C., single ultrafiltrations, trisodium salt",96.52% and 97.65% and 97.39%
same,non-covalent binding with Human Serum Albumin,[2],about 95%
